Measured values reported in patent publication US12540136B2, “Pyrrolopyridine derivative and use thereof” (ST PHARM CO., LTD., priority 2020, dated 2026).
Like-named read-outs stand apart in the source and are kept apart here.

Key:
Type in all cases: cell-based
[1] = Cytotoxicity, MTS dye reduction assay; details: human; MT-4 cells, MTS dye reduction, 6 days incubation; read-out: CC50, HIV-1(NL4-3) in MT-4 Cells
Description: (§1) In order to determine the HIV-1 (Wild type) inhibitory effect of compounds of the present invention, a test was conducted as follows. The host cell was MT-4 cells and the virus strain was NL4-3 strain of HIV-1. The virus and cells were mixed in the presence of the compounds of the present invention, followed by incubation for 6 days. The antiviral effect was measured as a percentage decrease in viral cytopathic effect (CPE), and the cytotoxicity of the compounds was evaluated by MTS (CellTiter® 96 Reagent, Promega, Madison WI) dye reduction assay. 1.

[2] = test system: HIV-1 (NL4-3); experiment: HIV-1 (wild type) inhibitory effect, decrease in viral cytopathic effect (CPE) in MT-4 cells; details: Human immunodeficiency virus 1, NL43, MT4, 144 h; NL4-3 strain, MT-4 host cells, 6 days incubation, CPE reduction
Description: as §1

[3] = test system: MT-4 cells; experiment: Cytotoxicity, MTS dye reduction assay
Description: as §1

SMILES	CC50 at 6 days [1]	EC50 [2]	CC50 ([3]; MT-4 cells, MTS dye reduction, 6 days incubation, read-out: CC50, HIV-1(NL4-3) in MT-4 Cells)	CC50 [3]
CCCCCCCCCCCCCOC(=O)[C@@H](OC(C)(C)C)c1c(C)nc2c(c(C)c(C)n2Cc2cnn(C)c2)c1-c1ccc(Cl)cc1 [Example 1, Tridecyl (S)-2-(tert-butoxy)-2-(4-(4-chlorophenyl)-2,3,6-trimethyl-1-((1-methyl-1H-pyrazol-4-yl)methyl)-1H-pyrrolo[2,3-b]pyridin-5-yl)acetate]	> 10 µM	> 10 µM		
Cc1nc2c(c(C)c(C)n2CC2CCO2)c(-c2ccc(Cl)cc2)c1[C@H](OC(C)(C)C)C(=O)OCc1oc(=O)oc1C (stereo partly drawn) [Example 2, (5-Methyl-2-oxo-1,3-dioxol-4-yl)methyl (2S)-2-(tert-butoxy)-2-(4-(4-chlorophenyl)-2,3,6-trimethyl-1-(oxetan-2-ylmethyl)-1H-pyrrolo[2,3-b]pyridin-5-yl)acetate]	> 10 µM	0.12 µM		
COCCn1c(C)c(C)c2c(-c3ccc(Cl)cc3)c([C@H](OC(C)(C)C)C(=O)OCc3oc(=O)oc3C)c(C)nc21 [Example 3, (5-Methyl-2-oxo-1,3-dioxol-4-yl)methyl (S)-2-(tert-butoxy)-2-(4-(4-chlorophenyl)-1-(2-methoxyethyl)-2,3,6-trimethyl-1H-pyrrolo[2,3-b]pyridin-5-yl)acetate]	> 10 µM	0.0227 µM		
Cc1nc2c(c(C)c(C)n2Cc2cnn(C)c2)c(-c2ccc(Cl)cc2)c1[C@H](OC(C)(C)C)C(=O)OCc1oc(=O)oc1C [Example 4, (5-Methyl-2-oxo-1,3-dioxol-4-yl)methyl (S)-2-(tert-butoxy)-2-(4-(4-chlorophenyl)-2,3,6-trimethyl-1-((1-methyl-1H-pyrazol-4-yl)methyl)-1H-pyrrolo[2,3-b]pyridin-5-yl)acetate]	> 10 µM	0.00527 µM		
Cc1nc2c(c(C)c(C)n2Cc2cnn(C)c2)c(-c2ccc(Cl)cc2)c1[C@H](OC(C)(C)C)C(N)=O [Example 5, (S)-2-(tert-butoxy)-2-(4-(4-chlorophenyl)-2,3,6-trimethyl-1-((1-methyl-1H-pyrazol-4-yl)methyl)-1H-pyrrolo[2,3-b]pyridin-5-yl)acetamide]	> 10 µM	> 10 µM		
Cc1nc2c(c(C)c(C)n2Cc2cnn(C)c2)c(-c2ccc(Cl)cc2)c1[C@@H](C#N)OC(C)(C)C [Example 6, (S)-2-(tert-butoxy)-2-(4-(4-chlorophenyl)-2,3,6-trimethyl-1-((1-methyl-1H-pyrazol-4-yl)methyl)-1H-pyrrolo[2,3-b]pyridin-5-yl)acetonitrile]	> 10 µM	> 10 µM		
Cc1nc2c(c(C)c(C)n2Cc2cnn(C)c2)c(-c2ccc(Cl)cc2)c1[C@H](OC(C)(C)C)c1nnn[nH]1 [Example 7, (S)-5-(tert-butoxy(1H-tetrazol-5-yl)methyl)-4-(4-chlorophenyl)-2,3,6-trimethyl-1-((1-methyl-1H-pyrazol-4-yl)methyl)-1H-pyrrolo[2,3-b]pyridine]	> 10 µM	0.361 µM		
CNC(=O)[C@@H](OC(C)(C)C)c1c(C)nc2c(c(C)c(C)n2Cc2cnn(C)c2)c1-c1ccc(Cl)cc1 [Example 8, (S)-2-(tert-butoxy)-2-(4-(4-chlorophenyl)-2,3,6-trimethyl-1-((1-methyl-1H-pyrazol-4-yl)methyl)-1H-pyrrolo[2,3-b]pyridin-5-yl)-N-methylacetamide]	4.98 µM			
CONC(=O)[C@@H](OC(C)(C)C)c1c(C)nc2c(c(C)c(C)n2Cc2cnn(C)c2)c1-c1ccc(Cl)cc1 [Example 9, (S)-2-(tert-butoxy)-2-(4-(4-chlorophenyl)-2,3,6-trimethyl-1-((1-methyl-1H-pyrazol-4-yl)methyl)-1H-pyrrolo[2,3-b]pyridin-5-yl)-N-methoxyacetamide]	8.89 µM			
CON(C)C(=O)[C@@H](OC(C)(C)C)c1c(C)nc2c(c(C)c(C)n2Cc2cnn(C)c2)c1-c1ccc(Cl)cc1 [Example 10, (S)-2-(tert-butoxy)-2-(4-(4-chlorophenyl)-2,3,6-trimethyl-1-((1-methyl-1H-pyrazol-4-yl)methyl)-1H-pyrrolo[2,3-b]pyridin-5-yl)-N-methoxy-N-methylacetamide]	> 10 µM	> 10 µM		
Cc1nc2c(c(C)c(C)n2Cc2cnn(C)c2)c(-c2ccc(Cl)cc2)c1[C@H](OC(C)(C)C)C(=O)NO [Example 11, (S)-2-(tert-butoxy)-2-(4-(4-chlorophenyl)-2,3,6-trimethyl-1-((1-methyl-1H-pyrazol-4-yl)methyl)-1H-pyrrolo[2,3-b]pyridin-5-yl)-N-hydroxyacetamide]	3.16 µM			
Cc1nc2c(c(C)c(C)n2Cc2cnn(C)c2)c(-c2ccc(Cl)cc2)c1[C@H](OC(C)(C)C)/C(N)=N/O [Example 12, (S,Z)-2-(tert-butoxy)-2-(4-(4-chlorophenyl)-2,3,6-trimethyl-1-((1-methyl-1H-pyrazol-4-yl)methyl)-1H-pyrrole[2,3-b]pyridin-5-yl)-N′-hydroxyacetimidamide]			> 10 µM	
Cc1nc([C@@H](OC(C)(C)C)c2c(C)nc3c(c(C)c(C)n3Cc3cnn(C)c3)c2-c2ccc(Cl)cc2)no1 [Example 13, (S)-3-(tert-butoxy (4-(4-chlorophenyl)-2,3,6-trimethyl-1-((1-methyl-1-1H-pyrazol-4-yl)methyl)-1H-pyrrolo[2,3-b]pyridin-5-yl)methyl)-5-methyl-1,2,4-oxadiazole]				> 10 µM
Cc1nc2c(c(C)c(C)n2Cc2cnn(C)c2)c(-c2ccc(Cl)cc2)c1[C@H](OC(C)(C)C)C(=O)Nc1nn[nH]n1 [Example 14, (S)-2-(tert-butoxy)-2-(4-(4-chlorophenyl)-2,3,6-trimethyl-1-((1-methyl-1H-pyrazol-4-yl)methyl)-1H-pyrrolo[2,3-b]pyridin-5-yl)-N-(2H-tetrazol-5-yl)acetamide]	> 10 µM	> 10 µM		
COC(=O)OCOC(=O)[C@@H](OC(C)(C)C)c1c(C)nc2c(c(C)c(C)n2Cc2cnn(C)c2)c1-c1ccc(Cl)cc1 [Example 15, ((Methoxycarbonyl)oxy)methyl (S)-2-(tert-butoxy)-2-(4-(4-chlorophenyl)-2,3,6-trimethyl-1-((1-methyl-1H-pyrazol-4-yl)methyl)-1H-pyrrolo[2,3-b]pyridin-5-yl)acetate]	> 10 µM	0.0316 µM		
COCCOCCOC(=O)[C@@H](OC(C)(C)C)c1c(C)nc2c(c(C)c(C)n2Cc2cnn(C)c2)c1-c1ccc(Cl)cc1 [Example 16, 2-(2-Methoxyethoxy)ethyl (S)-2-(tert-butoxy)-2-(4-(4-chlorophenyl)-2,3,6-trimethyl-1-((1-methyl-1H-pyrazol-4-yl)methyl)-1H-pyrrolo[2,3-b]pyridin-5-yl)acetate]	> 10 µM	> 10 µM		
